Values after ≈ are worked out from the molar mass of the structure shown. Active and inactive are the calls of the source. No cut-off for these calls is given here. Where a SMILES comes first, the peptide text is derived from it. Bridges are numbered along the chain shown (N, C = ends). [ ]: non-standard residue; d: D form. The star is where a group is joined. X1 = CC[C@H](C)CCCCC(=O)*; dDab = NCC[C@@H](N)C(=O)O; Dab = NCC[C@H](N)C(=O)O

For orientation: MIC means the lowest concentration that inhibits growth of the organism. A lower MIC goes with inhibition by little substance.

Series [1] deals with Pseudomonas aeruginosa. Briefly: Inhibition of biofilm formation in multi-drug resistant Pseudomonas aeruginosa CCARM 2095 at 4 to 8 uM by crystal violet staining based analysis relative to control. The class given is functional. The note with it: dose 4-8 µM.
The subject of series [2] is Pseudomonas aeruginosa. Nature of the series: Eradication of biofilm formation in multi-drug resistant Pseudomonas aeruginosa CCARM 2095 at 32 uM incubated for 12 hrs by CLSM analysis relative to control. Type of series: functional.
Series [3] relates to Acinetobacter baumannii. Nature of the series: Antibacterial activity against carbapenem-resistant Acinetobacter baumannii 1707 incubated for 24 hrs by CLSI based broth microdilution method. The class given is functional, organism-based.
For series [4], the system named is Acinetobacter baumannii. Nature of the series: Antibacterial activity against carbapenem-resistant Acinetobacter baumannii 1915 incubated for 24 hrs by CLSI based broth microdilution method. The class given is functional, organism-based. (In broth dilution the organism is exposed to a series of concentrations in liquid medium.)
The test system of series [5] is Lipopolysaccharide (LPS). Briefly: Disaggregation of FITC-labeled Escherichia coli 0111:B4 LPS assessed as increase in fluorescence intensity at higher concentration.
Series [6] relates to Escherichia coli. Briefly: Induction of resistance development in Escherichia coli KCTC 1682 assessed as fold increase in MIC at 0.5 times MIC measured after 30 passages relative to control. Type of series: functional.
Series [7] concerns Acinetobacter baumannii. Briefly: Antibacterial activity against carbapenem-resistant Acinetobacter baumannii NMS 1707 incubated for 24 hrs by CLSI based broth microdilution method. The class given is functional.
For series [8], the system named is Enterococcus faecium. Nature of the series: Antibacterial activity against vancomycin-resistant Enterococcus faecium ATCC 51559 incubated for 24 hrs by CLSI based broth microdilution method. The class given is functional.
The subject of series [9] is Acinetobacter baumannii. Nature of the series: Antibacterial activity against carbapenem-resistant Acinetobacter baumannii NMS 1915 incubated for 24 hrs by CLSI based broth microdilution method. Type of series: functional.
Series [10] has as its system Escherichia coli. Briefly: Induction of inner membrane permeabilization in Escherichia coli KCTC 1682 at MIC by PI staining based flow cytometry (reference value: 1.51 %). The class given is functional. Background: Flow cytometry measures light scatter and fluorescence of single cells or particles in a stream.
In series [11] the test system is Acinetobacter baumannii. Nature of the series: Antibacterial activity against multidrug-resistant Acinetobacter baumannii 329-53 incubated for 24 hrs by CLSI based broth microdilution method. Type of series: functional.
The subject of series [12] is Acinetobacter baumannii. Briefly: Antibacterial activity against carbapenem-resistant Acinetobacter baumannii CCARM 12005 incubated for 24 hrs by CLSI based broth microdilution method. Type of series: functional.
Series [13] in a line: Hemolytic activity in sheep RBC incubated for 1 hr by absorbance based assay. Type of series: toxicity, cell-based, Ovis aries. The note with it: erythrocyte.
The subject of series [14] is Acinetobacter baumannii. Briefly: Antibacterial activity against multidrug-resistant Acinetobacter baumannii 329-97 incubated for 24 hrs by CLSI based broth microdilution method. Type of series: functional.
Series [15] deals with Pseudomonas aeruginosa. Nature of the series: Bactericidal activity against multidrug-resistant Pseudomonas aeruginosa CCARM 2095 at 128 to 512 uM incubated for 12 hrs by time-kill assay. The settings on record: dose 128-512 µM. Type of series: functional, organism-based.
Series [16] has as its system Pseudomonas aeruginosa. Nature of the series: Antibacterial activity against multi-drug resistant Pseudomonas aeruginosa CCARM 2095 incubated for 24 hrs by broth microdilution method. Type of series: functional.
Series [17] relates to Staphylococcus aureus. Nature of the series: Bactericidal activity against methicillin-resistant Staphylococcus aureus CCARM 3089 at 128 to 512 uM incubated for 12 hrs by time-kill assay. The class given is functional, organism-based. The settings on record: dose 128-512 µM.
The subject of series [18] is Staphylococcus aureus. Nature of the series: Antibacterial activity against methicillin-resistant Staphylococcus aureus CCARM 3089 incubated for 24 hrs by broth microdilution method. The class given is functional.

Consider `CC[C@H](C)[C@H](NC(=O)[C@H](CCCCN)NC(=O)[C@H](CCC(=O)O)NC(=O)[C@H](CCCCN)NC(=O)[C@H](CO)NC(=O)[C@H](CCCCN)NC(=O)[C@H](CCCNC(=N)N)NC(=O)[C@H](Cc1ccccc1)NC(=O)[C@H](Cc1ccccc1)NC(=O)[C@H](CC(=O)O)NC(=O)CNC(=O)[C@H](CC(C)C)NC(=O)[C@@H](N)CC(C)C)C(=O)NCC(=O)N[C@@H](CCCCN)C(=O)N[C@@H](CCC(=O)O)C(=O)N[C@@H](Cc1ccccc1)C(=O)N[C@@H](CCCCN)C(=O)N[C@@H](CCCNC(=N)N)C(=O)N[C@H](C(=O)N[C@H](C(=O)N[C@@H](CCC(N)=O)C(=O)N[C@@H](CCCNC(=N)N)C(=O)N[C@H](C(=O)N[C@@H](CCCCN)C(=O)N[C@@H](CC(=O)O)C(=O)N[C@@H](Cc1ccccc1)C(=O)N[C@@H](CC(C)C)C(=O)N[C@@H](CCCNC(=N)N)C(=O)N[C@@H](CC(N)=O)C(=O)N[C@@H](CC(C)C)C(=O)N[C@H](C(=O)N1CCC[C@H]1C(=O)N[C@@H](CCCNC(=N)N)C(=O)N[C@H](C(=O)N[C@@H](CCC(=O)O)C(=O)N[C@@H](CO)C(=O)O)[C@@H](C)O)C(C)C)[C@@H](C)CC)C(C)C)[C@@H](C)CC` [CATHELICIDIN], for which the “inhibition (INH)” value in series [1] was over 50%. In [2], this compound yielded an Activity of over 50%.

`C[C@@H](O)[C@H]1C(=O)N2C(C(=O)O)=C(SCCNC=N)C[C@H]12`: the outcome in series [3] and in [4] was inactive.

Regarding `CC(C)CCCCC(=O)N[C@@H](CCN)C(=O)N[C@H](C(=O)N[C@@H](CCN)C(=O)N[C@H]1CCNC(=O)[C@H]([C@@H](C)O)NC(=O)[C@H](CCN)NC(=O)[C@H](CCN)NC(=O)[C@H](CC(C)C)NC(=O)[C@@H](Cc2ccccc2)NC(=O)[C@@H](CCN)NC1=O)[C@@H](C)O.CC[C@H](C)CCCCC(=O)N[C@@H](CCN)C(=O)N[C@H](C(=O)N[C@@H](CCN)C(=O)N[C@H]1CCNC(=O)[C@H]([C@@H](C)O)NC(=O)[C@H](CCN)NC(=O)[C@H](CCN)NC(=O)[C@H](CC(C)C)NC(=O)[C@@H](Cc2ccccc2)NC(=O)[C@@H](CCN)NC1=O)[C@@H](C)O` (X1-[Dab]T[Dab][Dab][dDab][dF]L[Dab][Dab]T; lactam 4-C), the outcome in [5] was inactive.

As for `CN(C)[C@@H]1C(O)=C(C(N)=O)C(=O)[C@@]2(O)C(O)=C3C(=O)c4c(O)cccc4[C@@](C)(O)[C@H]3C[C@@H]12` [TETRACYCLINE], the “fold change (FC)” value in [6] came out at 256.

For `CC[C@H](C)[C@H](NC(=O)CN)C(=O)NCC(=O)N[C@@H](C)C(=O)N[C@H](C(=O)N[C@@H](CC(C)C)C(=O)N[C@@H](CCCCN)C(=O)N[C@H](C(=O)N[C@@H](CC(C)C)C(=O)N[C@H](C(=O)N[C@H](C(=O)NCC(=O)N[C@@H](CC(C)C)C(=O)N1CCC[C@H]1C(=O)N[C@@H](C)C(=O)N[C@@H](CC(C)C)C(=O)N[C@H](C(=O)N[C@@H](CO)C(=O)N[C@@H](Cc1c[nH]c2ccccc12)C(=O)N[C@H](C(=O)N[C@@H](CCCCN)C(=O)N[C@@H](CCCNC(=N)N)C(=O)N[C@@H](CCCCN)C(=O)N[C@@H](CCCNC(=N)N)C(=O)N[C@@H](CCC(N)=O)C(=O)N[C@@H](CCC(N)=O)C(N)=O)[C@@H](C)CC)[C@@H](C)CC)[C@@H](C)O)[C@@H](C)O)C(C)C)C(C)C` [MELITTIN], the MIC stood at 8 µM (≈ 22.8 µg/mL) in series [7]; 2 µM (≈ 5.69 µg/mL) in series [8]; 4 µM (≈ 11.4 µg/mL) in series [9]; 2 µM (≈ 5.69 µg/mL) in [11]; 8 µM (≈ 22.8 µg/mL) in series [12]; 2 µM (≈ 5.69 µg/mL) in series [14]. In [10], this compound showed an Activity of about 100%. The same compound returned an HC10 in series [13] of 2.2 µM.

Consider `Cc1onc(-c2ccccc2)c1C(=O)N[C@@H]1C(=O)N2[C@@H]1SC(C)(C)[C@@H]2C(=O)O` [OXACILLIN], for which the result in series [15] and in series [17] was inactive. Also, the MIC in [16] was found to be 4100 µM (≈ 1640 µg/mL); in [18] it was 2050 µM (≈ 822 µg/mL).

In the case of `O=C(O)c1cn(C2CC2)c2cc(N3CCNCC3)c(F)cc2c1=O` [CIPROFLOXACIN], the “fold change (FC)” value in [6] was 8192. For the same compound, the MIC in series [16] and in series [18] was 1020 µM (≈ 339 µg/mL) in each case.

The values above are taken from ChEMBL document CHEMBL6074662, “Antibacterial, Antibiofilm, and Anti-inflammatory Effects of a Novel Thrombin-Derived Peptide in Sepsis Models: Insights into Underlying Mechanisms” (J Med Chem, 2024).
